Values of other authors, collected in patent US20220016034A1, “OPIOID RECEPTOR MODULATOR DOSAGE FORMULATIONS” (Allergan Holdings Unlimited Company, priority 2020, published 2022).

Tested on: stressed and non-stressed mice

## CN(C)C(=O)C(CCN1CCC(O)(c2ccc(Cl)cc2)CC1)(c1ccccc1)c1ccccc1 [loperamide]
  gastrointestinal transit and fecal output: completely prevented fecal output in a dose-dependent manner
